From paper PMC6943434, “Novel Homo-Bivalent and Polyvalent Compounds Based on Ligustrazine and Heterocyclic Ring as Anticancer Agents” (Molecules, 2019)
Like-named read-outs stand apart in the source and are kept apart here.

How the values were obtained:
[1] = test system: HeLa (cervical cancer cell line); assay: MTT cell viability assay, HeLa; assay type: cell-based; details: Homo sapiens, 48 h, read-out: Antiproliferative Activity IC50 ± SEM, HeLa
Experimental: (§1) The tested cells were obtained from Shanghai Institute of Biochemistry and Cell Biology of the Chinese Academy of Sciences (Shanghai, China). HeLa and Hep G2 cell lines were cultured in Dulbecco’s modified Eagle’s medium (DMEM; gibco, Life Technologies, Carlsbad, CA, USA) supplemented with 10% fetal bovine serum (FBS; Biological Industries), 100 U/mL penicillin-streptomycin (PS; gibco, Life Technologies, Carlsbad, CA, USA). MCF-7 and A549 cell lines were maintained in RPMI-1640 media (gibco, Life Technologies, Carlsbad, CA, USA) supplemented with 10% FBS and 100 U/mL PS. FaDu cell lines were cultured in minimum essential medium (MEM; Gibco, Life Technologies, Carlsbad, CA, USA) supplemented with 10% FBS and 100 U/mL PS. MCF 10A cell lines were maintained in Mammary MEGM kit (Lonza/Clonetics) supplemented with 100 ng/mL cholera toxin (Sigma, Shanghai, China). Cell lines were grown at 37 °C in a humidified atmosphere of 5% CO2.
(§2) The growth-inhibitory effects against HeLa, Hep G2, MCF-7, FaDu, and A549 cancer cells and normal cell lines MCF 10A were determined by MTT assay. […] Cells were seeded in 96 well plates at a density of 1 × 10^4 cells per well and incubated for 24 h at 37 °C in a humidified atmosphere of 5% CO2. The cells were then incubated with various concentrations of drugs for 48 h in a 5% CO2 incubator at 37 °C. After treatment with 1 mg/mL 3-(4,5-dimethylthiazol-2-yl)-2,5-diphenyltetrazolium bromide (MTT) solution for 4 h, the formazan crystals were dissolved in 100 µL DMSO in each well. Plates were read on a microplate reader (Thermo Varioskan Flash 3001) at 490 nm. The experiment was performed in triplicate. The inhibitory concentration at 50% (IC50) was calculated based on concentration-inhibition relationships via regression using SPSS software (Version 17.0).

[2] = test system: MCF-7 (breast cancer cell line); assay: MTT cell viability assay, MCF-7; assay type: cell-based; details: Homo sapiens, MCF7, 48 h, read-out: Antiproliferative Activity IC50 ± SEM, MCF-7
Experimental: as §1, §2

[3] = test system: A549 (epithelial cancer cell line); assay: MTT cell viability assay, A549; assay type: cell-based; details: Homo sapiens, 48 h, read-out: Antiproliferative Activity IC50 ± SEM, A549
Experimental: as §1, §2

[4] = test system: MCF 10A (normal mammary epithelial cell); assay: MTT cell viability assay, MCF 10A; assay type: cell-based; details: Homo sapiens, 48 h, normal cells, read-out: Antiproliferative Activity IC50 ± SEM, MCF 10A
[5] = test system: Hep G2 (hepatocarcinoma cell line); assay: MTT cell viability assay, Hep G2; assay type: cell-based; details: Homo sapiens, HepG2, 48 h, read-out: Antiproliferative Activity IC50 ± SEM, Hep G2
Experimental: as §1, §2

[6] = test system: FaDu (head and neck squamous carcinoma cell line); assay: MTT cell viability assay, FaDu; assay type: cell-based, human
Experimental: as §1, §2

[7] = Homo sapiens, FaDu, 48 h, MTT, 48 h; read-out: Antiproliferative Activity IC50 ± SEM, FaDu
[8] = SI = IC50 (MCF 10A)/IC50 (FaDu)

Compound | IC50 [1] [µM] | IC50 [2] [µM] | IC50 [3] [µM] | IC50 [4] [µM] | IC50 [5] [µM] | IC50 [6, 7] [µM] | SI: selectivity index [6, 8] | IC50 ([6]; Homo sapiens, FaDu; MTT, 48 h; read-out: Antiproliferative Activity IC50 ± SEM, FaDu) [µM] | IC50 ([6]; MTT, 48 h; read-out: Antiproliferative Activity IC50 ± SEM, FaDu) [µM]
O=C(/C=C/c1ccccc1)NCCCCCCCCNC(=O)/C=C/c1ccccc1 [Compound 9d, (2E,2′E)-N,N′-(Octane-1,8-Diyl)Bis(3-Phenylacrylamide)] | > 20 | > 20 | > 20 | > 20 | > 20 | 1.05 ± 0.091 | >18.98 |  | 
Cc1nc(C)c(CN(CCCCCCN(Cc2nc(C)c(C)nc2C)Cc2nc(C)c(C)nc2C)Cc2nc(C)c(C)nc2C)nc1C [Compound 6d, N^1,N^1,N^6,N^6-Tetrakis((3,5,6-Trimethylpyrazin-2-yl)Methyl)Hexane-1,6-Diamine] | > 100 | > 100 | > 100 | > 100 | > 100 | > 100 |  |  | 
O=C(NCCCCCCCCCCNC(=O)c1cc2ccccc2s1)c1cc2ccccc2s1 [Compound 22e, N,N′-(Decane-1,10-Diyl)Bis(Benzo[b]Thiophene-2-Carboxamide)] | > 20 | > 20 | > 20 | > 20 | > 20 |  | >1000 |  | 
O=C(NCCCCCCCCCCNC(=O)c1ccco1)c1ccco1 [Compound 14e, N,N′-(Decane-1,10-Diyl)Bis(Furan-2-Carboxamide)] | > 100 | > 100 | 44.37 ± 0.29 | 19.8 ± 1.41 | 97.8 ± 1.55 | 6.33 ± 0.65 | 3.13 |  | 
O=C(NCCCCCCCCCCNC(=O)c1cc2ccccc2oc1=O)c1cc2ccccc2oc1=O [Compound 20e, N,N′-(Decane-1,10-Diyl)Bis(2-Oxo-2H-Chromene-3-Carboxamide)] | > 20 | > 20 | > 20 | > 20 | > 20 | > 20 |  |  | 
Cc1nc(C)c(C(=O)NCCCCNC(=O)c2nc(C)c(C)nc2C)nc1C [Compound 8b, N,N′-(Butane-1,4-Diyl)Bis(3,5,6-Trimethylpyrazine-2-Carboxamide)] | > 100 | > 100 | > 100 | > 100 | > 100 | > 100 |  |  | 
O=C(/C=C/c1ccccc1)OCCCCCCCCCCOC(=O)/C=C/c1ccccc1 [Compound 9h, Decane-1,10-Diyl (2E,2′E)-Bis(3-Phenylacrylate)] | > 20 | > 20 | > 20 | > 20 | > 20 | > 20 |  |  | 
O=C(/C=C/c1ccccc1)OCCOCCOCCOC(=O)/C=C/c1ccccc1 [Compound 9l, (Ethane-1,2-Diylbis(Oxy))Bis(Ethane-2,1-Diyl) (2E,2′E)-Bis(3-Phenylacrylate)] | > 20 | > 20 | > 20 | > 20 | > 20 | > 20 |  |  | 
O=C(/C=C/c1ccccc1)OCCCCCCCCOC(=O)/C=C/c1ccccc1 [Compound 9g, Octane-1,8-Diyl (2E,2′E)-Bis(3-Phenylacrylate)] | > 20 | > 20 | > 20 | > 20 | > 20 | > 20 |  |  | 
Cc1nc(C)c(C(=O)NCCCCCCCCNC(=O)c2nc(C)c(C)nc2C)nc1C [Compound 8d, N,N′-(Octane-1,8-Diyl)Bis(3,5,6-Trimethylpyrazine-2-Carboxamide)] | 3.31 ± 0.14 | 0.48 ± 0.003 | 6.35 ± 0.05 | 2.69 ± 0.46 | > 20 | 0.11 ± 0.03 | 24.45 |  | 
COc1cccc2c1C(=O)c1c(O)c3c(c(O)c1C2=O)C[C@@](O)(C(=O)CO)C[C@@H]3O[C@H]1C[C@H](N)[C@H](O)[C@H](C)O1 [DOX, doxorubicin, reference compound] | 11.4 ± 0.48 | 6 ± 0.07 | > 100 | 0.55 ± 0.03 | 28 ± 1.09 |  |  | 1.27 ± 0.13 | 
COc1cc(C(=O)NCCCCCCCCCCNC(=O)c2cc(OC)c(OC)c(OC)c2)cc(OC)c1OC [Compound 34e, N,N′-(Decane-1,10-Diyl)Bis(3,4,5-Trimethoxybenzamide)] | > 20 | > 20 | > 20 | > 20 | > 20 | 5.85 ± 0.408 | >3.42 |  | 
O=C(NCCCCCCCCCCNC(=O)c1ccccc1)c1ccccc1 [Compound 11e, N,N′-(Decane-1,10-Diyl)Dibenzamide] | > 100 | > 100 | 64.3 ± 3.46 | 80.5 ± 7.6 | > 100 | < 1 | 161.08 |  | 0.5 ± 0.06
Nc1cccc(C(=O)NCCCCCCCCCCNC(=O)c2cccc(N)c2)c1 [Compound 32e, N,N′-(Decane-1,10-Diyl)bis(3-Aminobenzamide)] | > 20 | > 20 | > 20 | > 20 | > 20 | > 20 |  |  | 
Cc1nc(C)c(C(=O)NCCCCCCCCCCCCNC(=O)c2nc(C)c(C)nc2C)nc1C [Compound 8f, N,N′-(Dodecane-1,12-Diyl)Bis(3,5,6-Trimethylpyrazine-2-Carboxamide)] | 4.96 ± 1.62 | 0.158 ± 0.009 | 2.46 ± 0.05 | 0.051 ± 0.021 | > 20 | 0.174 ± 0.01 | 0.29 |  | 
O=C(NCCCCCCCCCCNC(=O)c1ccncc1)c1ccncc1 [Compound 13e, N,N′-(Decane-1,10-Diyl)Diisonicotinamide] | > 100 | > 100 | > 100 | > 100 | > 100 | 48.3 ± 3.17 | >2.07 |  | 
Cc1nc(C)c(C(=O)NCCCCCCNC(=O)c2nc(C)c(C)nc2C)nc1C [Compound 8c, N,N′-(Hexane-1,6-Diyl)Bis(3,5,6-Trimethylpyrazine-2-Carboxamide)] | > 100 | > 100 | > 100 | 46.6 ± 0.65 | > 100 | 80.4 ± 1.36 |  |  | 
Cc1nc(C)c(CN(CCN(Cc2nc(C)c(C)nc2C)Cc2nc(C)c(C)nc2C)Cc2nc(C)c(C)nc2C)nc1C [Compound 6a, N^1,N^1,N^2,N^2-Tetrakis((3,5,6-Trimethylpyrazin-2-yl)Methyl)Ethane-1,2-Diamine] | > 100 | > 100 | > 100 | 90.3 ± 3.41 | > 100 | > 100 |  |  | 
COc1cc(OC)cc(C(=O)NCCCCCCCCCCNC(=O)c2cc(OC)cc(OC)c2)c1 [Compound 33e, N,N′-(Decane-1,10-Diyl)Bis(3,5-Dimethoxybenzamide)] | > 20 | > 20 | > 20 | > 20 | > 20 | 10.4 ± 0.949 | >1.92 |  | 
COc1cc(/C=C/C(=O)NCCCCCCCCCCNC(=O)/C=C/c2cc(OC)c(OC)c(OC)c2)cc(OC)c1OC [Compound 29e, (2E,2′E)-N,N′-(Decane-1,10-Diyl)Bis(3-(3,4,5-Trimethoxyphenyl)Acrylamide)] | > 20 | > 20 | > 20 | > 20 | > 20 | 5.07 ± 0.461 | >3.95 |  | 
COc1ccc(C(=O)NCCCCCCCCCCNC(=O)c2ccc(OC)c(OC)c2OC)c(OC)c1OC [Compound 35e, N,N′-(Decane-1,10-Diyl)Bis(2,3,4-Trimethoxybenzamide)] | > 20 | > 20 | > 20 | > 20 | > 20 | > 20 |  |  | 
O=C(NCCCCCCCCCCNC(=O)c1ccccn1)c1ccccn1 [Compound 15e, N,N′-(Decane-1,10-Diyl)Dipicolinamide] | 37.7 ± 4.32 | 21.5 ± 1.47 | 23.08 ± 0.12 | 54.6 ± 5.92 | 26.3 ± 5.36 | 8.85 ± 0.45 | 6.18 |  | 
